# From patent US11628164B2, “Composition containing salsolinol for treating liver cancer” (SUNGSHIN WOMEN'S UNIVERSITY R&DB FOUNDATION, priority 2020, dated 2023)
# Key:
# [1] = system: STAT3, pSTAT3, PCNA, 15-PGDH, p53 in SNU387; test: Western blotting of tumor-related genes in SNU387; format: cell-based, human; conditions: SNU387, 25 μM salsolinol, 72 hours
# Description: (§1) 5×10^5 cells of Human-derived liver cancer cell lines SK-Hep1 and SNU387 are cultured in a 60 mm culture vessel, the cells are lysed, and proteins are separated through electrophoresis. And after that, western blotting analysis is performed by using a specific antibody. After treatment of the SK-Hep1 and the SNU387 with the salsolinol at different times and concentrations, the cells are washed with PBS, and the cells are scraped off with a scraper. The cells are lysed in a lysis buffer for 1 hour, and after that, centrifuge separation is performed at 13,000 rpm for 15 minutes at 4° C., and only the supernatant is extracted. 20 μg of protein contained in the supernatant is electrophoresed on SDS-polyacrylamide gel, and after that, transferred to a PVDF membrane for 2 hours. The sample reacts with antibodies pSTAT3(#9145), STAT3(#9132), PCNA(#2586), 15-PGDH(cayman No. 160615), p53(sc-126), p53(sc-99), pAKT(#9271), AKT(#9272), Annexin A2(#8235), and GAPDH(sc-32233). The protein is detected by using an enhanced chemiluminascence (ECL) detection solution. As a result of the above-described experiment, it is confirmed that the activity of cells in the liver cancer cell lines SK-Hep1 is decreased by the salsolinol, and particularly, the specificity for the liver cancer cell lines is confirmed. In order to check the correlation between the decrease in the activity of cells of the liver cancer cell lines by the salsolinol and the gene expression, the SK-Hep1 which is a liver cancer cell line and the SNU387 which is a liver cancer cell line are cultured, and the samples are treated with 25 μM of salsolinol d for 72 hours. After the treatment, changes in the expression levels of tumor-related genes such as STAT3, pSTAT3, PCNA, 15-PGDH, and p53 are checked (refer to FIG. 4).
# [2] = system: SK-Hep1; conditions: cited from earlier work
# [3] = system: SNU387; test: MTT cell viability, female-derived liver cancer cell line; format: cell-based, human; conditions: SNU387, 5-100 μM salsolinol, 24, 48, 72 hours
# Description: SK-Hep1 and SNU387, which are human-derived hepatoma cell lines, are distributed from Korea Cell Line Bank. […] The SK-Hep1 and the SNU387 are cultured in a medium including a minimum essential medium (Dulbecco Modified Eagle Medium, DMEM) (Gibco BRL grand Island, N.Y., USA) and in a medium containing 10% FBS (HyClone Lab, Inc, Logan, Utah, USA), 100 U/ml penicillin. (penicillin) and 100 μg/ml streptomycin (Gibco, Grand Island, N.Y., USA) at 37° C. in an atmosphere of 5% CO2. The cultured liver cancer cell lines (SK-HEP1 and SNU387) are dispensed into each well of a 48-well plate so as to have a concentration of 5×10^4 cells. After culturing for 24 hours, the sample is treated with the salsolinol for 24 hours, 48 hours, and 72 hours so as to have a concentration of 5 μM, 15 μM, 25 μM, 50 μM, or 100 μM. After that, 250 μl of 0.5 mg/ml MTT solution (Sigma, St Louis, Mo., US) is added to each well and reacted at 37° C. for 1 hour. After removing the solution, MTT-formazione is lysed and washed with 250 μl of DMSO (Dimethylsulfoxide, Duksan, Gyeonggi, Korea), and then, the absorbance at 540 nm is measured by using a SpectraMax 190 microplate plate reader (Molecular Devices, LCC. San Jose, Calif.). […]
# [4] = system: STAT3, pSTAT3, PCNA, 15-PGDH, p53 in SK-Hep1; test: Western blotting of tumor-related genes in SK-Hep1; format: cell-based, human
# Description: as §1
# [5] = SK-Hep1, from KR10-2019-0129765
# [6] = SK-Hep1, 25 μM salsolinol, 72 hours
smiles,measurement,setting,value
"CC1NCCc2cc(O)c(O)cc21 (stereo not drawn) [salsolinol, 6,7-dihydroxy-1-methyl-1,2,3,4-tetrahydroisoquinoline]",15-PGDH expression level,[1],remains constant
same,PCNA expression level,[1],rather increased
same,STAT3 expression level,[1],remains constant
same,p53 expression level,[1],not changed
same,pSTAT3 expression level,[1],not decreased
same,STAT3 phosphorylation,"[2]; SK-Hep1, from KR10-2019-0129765, 24 hours",increases signal transducer and transcription 3 (STAT3) phosphorylation
same,HO-1 expression,[2]; [5],increased
same,cytotoxicity,[2]; [5],exhibits cytotoxicity
same,cell viability (MTT),[3],cell viability is not decreased
same,15-PGDH expression level,[4]; [6],increased
same,PCNA expression level,[4]; [6],slightly decreased
same,STAT3 expression level,[4]; [6],remains constant
same,p53 expression level,[4]; [6],increased
same,pSTAT3 expression level,[4]; [6],decreased
same,phosphorylation of STAT3 over time,"[4]; male-derived liver cancer cell lines, time course after treatment","rapidly increased initially, but it is rapidly decreased after 24 hours"
